From PubChem BioAssay (NCI) come the findings set out here.

Common to all, as to test: NCI-60 cell line screen, 48 h
Experiment [1] relates to HCC-2998 colon.
The subject of experiment [2] is A549 NSCLC.
For experiment [3], the system named is MOLT-4 leukemia.
The test system of experiment [4] is TK-10 renal.
Experiment [5] deals with U251 CNS.
The test system of experiment [6] is SNB-75 CNS.
Experiment [7] concerns NCI-H460 lung.
Experiment [8] has as its system OVCAR-8 ovarian.
Experiment [9] has as its system MCF7 breast.
Experiment [10] concerns M14 melanoma.

“And” between values parts separate entries of the source, which are not always exact repeats. Equal values may be shown once.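 In this assay, cells in 96-well plates receive the compound at five concentrations for 48 hours. Endpoints are linearly interpolated between the surrounding concentrations. GI50 is the concentration that inhibits growth by half. At the TGI there is no net growth.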 Some results are limits rather than exact numbers.

In the case of `COC(=O)c1ccccc1/C=C1/Cc2ccccc2C1=O`, the TGI is more than 100 µM in [1]; more than 100 µM in experiment [2]; 78.5 µM in [3]; more than 100 µM in experiment [4]; 94.9 µM in [5]; more than 100 µM in experiment [6]. Besides, the TGI in experiment [7], in experiment [8] and in [9] was more than 100 µM throughout.

For the molecule `CCC[C@H]1C(=O)N=C(N)N1C(=O)OCc1ccccc1`, the TGI in experiment [1], in [3], in experiment [4], in [5], in experiment [6] and in [7] was more than 100 µM each time. The TGI in experiment [8] and in experiment [9] was more than 100 µM in each case.

Turning to `NC(=O)C(=O)N/N=C1/c2ccccc2CC1C1(O)C(=O)Nc2c(Cl)cc(Cl)cc21` (configuration not stated), the TGI in experiment [1], in experiment [2], in experiment [3], in experiment [4], in experiment [5] and in experiment [6] was more than 100 µM each time. For the same molecule, the TGI in experiment [7] and in [8] was more than 100 µM in each case.

On to `COc1ccc(-c2cc(=O)c3cc4c(cc3[nH]2)OCO4)c(OC)c1OC`, for which the TGI in experiment [1] was more than 100 µM; in experiment [2], more than 100 µM; in experiment [3], more than 100 µM; in experiment [4], more than 100 µM; in experiment [5], more than 100 µM; in experiment [6] it was 82.2 µM. Further, the TGI in experiment [7], in experiment [8] and in experiment [10] was more than 100 µM in each case.

As for `O=C1CCSSCCC(=O)NCCN1`, the TGI in experiment [2], in experiment [3], in experiment [4], in [5], in [7] and in [8] was more than 100 µM throughout. The molecule further returned a TGI in experiment [10] of more than 100 µM.

`Oc1ccc(-c2nnc3sc(-c4ccc(F)cc4)nn23)cc1`: the GI50 was more than 100 µM in [1]; more than 100 µM in experiment [2]; 33.6 µM in experiment [3]; 69.8 µM in experiment [4]; 17.3 µM in experiment [5]; 22.8 µM in experiment [6]. Further, the results for the GI50 in experiment [7], in experiment [8] and in experiment [9] were more than 100 µM, 48.3 µM and 59.7 µM, respectively. Further, the TGI in [1] is more than 100 µM; in experiment [2], more than 100 µM; in experiment [3], more than 100 µM; in experiment [4] it was more than 100 µM; in experiment [5], 41.9 µM; in experiment [6] it was 43.3 µM. Also, the TGI in [7], in experiment [8] and in experiment [9] was more than 100 µM throughout.

As to `COc1cc(/C=C/C(=O)O)ccc1C(=O)O/C=C/c1ccccc1`, the TGI in experiment [2], in [3], in [5], in experiment [6], in experiment [7] and in [8] was more than 100 µM each time. This molecule displayed a TGI in experiment [9] of more than 100 µM.

For `COc1cc(C2c3cc4c(cc3OC(NN=C(C)C)C2C)OCO4)cc(OC)c1O` (configuration not stated), the TGI is 31.6 µM in experiment [1]; more than 100 µM in [2]; more than 100 µM in experiment [4]; more than 100 µM in [5]; 48.5 µM in [6]; more than 100 µM in experiment [8]. Besides, the TGI in [9] and in [10] was more than 100 µM each time.

For `CCN(CC)CCNc1ccc2nnn3c4ccc(OC)cc4c(=O)c1c23`, the TGI in [2] was 19.4 µM; in [3], 13.1 µM; in experiment [4], 23.9 µM; in experiment [5] it was 22.3 µM; in experiment [6], 21 µM; in experiment [7], 13.3 µM. The TGI in experiment [8] is 19.9 µM; in experiment [10] it was 23.5 µM.

As to `CCC1=CCC23C(=O)C=CC(=O)C2(C1)C(=O)c1cccc(OC)c1C3=O` (configuration not stated), the TGI in experiment [2] stood at 51.5 µM; in [3], 17.4 µM; in experiment [4], 33.5 µM; in [5] it was 61.8 µM; in [6], 33.5 µM; in experiment [7] it was 62.5 µM. For the same molecule, the TGI in [8] was 29.9 µM; in [9], 32.8 µM; in [10], 30.4 µM.

As to `COc1cc(/C=C2\C(=O)N(C(=O)Cc3ccccc3)N=C2C)ccc1O`, the TGI in experiment [1], in experiment [2], in experiment [3], in experiment [4], in experiment [6] and in [8] was more than 100 µM each time. Besides, in [10], the TGI is more than 100 µM.

Take `O=C(CP(=O)(O)O)c1cccs1`: the TGI in experiment [1], in experiment [2], in [4], in [5], in [6] and in experiment [7] was more than 100 µM each time. For the same molecule, the TGI in experiment [8] and in [10] was more than 100 µM in each case.

As for `CCC(C(=O)O)c1ccc(OCc2ccccc2)cc1` (configuration not stated), the TGI in experiment [1], in experiment [2], in experiment [3], in experiment [4], in experiment [5] and in experiment [6] was more than 100 µM each time. Also, the TGI in experiment [7] and in experiment [10] was more than 100 µM each time.

As for `COc1ccc(Nc2nc3ccc(C(F)(F)F)cc3nc2C(=O)O)cc1OC`, the TGI in experiment [1] was 43.7 µM; in [3], 43.5 µM; in experiment [5] it was more than 100 µM; in experiment [6], 81.5 µM; in [7] it was 54.6 µM; in experiment [8], more than 100 µM. Also, the TGI in experiment [9] was more than 100 µM.

For the molecule `Cc1cc(C)c2c(=O)n(CN3CC4Nc5ccccc5C4C3)sc2n1` (configuration not stated), the TGI in experiment [2] was more than 100 µM; in [3], 95.3 µM; in [4], 35.8 µM; in [5], more than 100 µM; in experiment [7] it was 46.2 µM; in [8] it was 52 µM. Further, the figures for the TGI in [9] and in experiment [10] were more than 100 µM and 63.1 µM, respectively.

As to `COCOc1ccc(OC)cc1`, the TGI in experiment [1], in experiment [2], in experiment [3], in experiment [5], in experiment [6] and in experiment [7] was more than 100 µM in each case. The TGI in [8] and in [9] was more than 100 µM throughout.

As for `CSC1CC2C(CC1(C)O)C2(C)C` (configuration not stated), the TGI in [1], in experiment [2], in experiment [3], in [4], in experiment [5] and in [6] was more than 100 µM each time. The TGI in experiment [7], in [8] and in [10] was more than 100 µM in each case. Moreover, the GI50 was more than 100 µM in [3]; > 100 µM and 47.9 µM in experiment [6].

Consider `CCC12C[N+]3([O-])CCc4c([nH]c5ccccc45)C(C(=O)OC)(c4cc5c(cc4OC)N(C)C4C(O)(C(=O)OC)C(OC(C)=O)C6(CC)C=CCN7CCC54C76)CC(C3)C1O2` (configuration not stated), for which the TGI in [1] is more than 100 µM; in [2], 29.9 µM; in [3], 3.44 µM; in experiment [4], 26.8 µM; in experiment [5] it was 86.1 µM; in experiment [6] it was 0.952 µM. The figures for the TGI in experiment [7], in [8] and in experiment [10] were 43.5 µM, 54.1 µM and 17.8 µM, respectively.

For `CN(C)C(CN)CC1=C(CC(CN)N(C)C)CCC1` (configuration not stated), the TGI in experiment [1], in [2], in experiment [3], in experiment [5], in [6] and in [7] was more than 100 µM in each case. Besides, the TGI in experiment [8] and in experiment [9] was more than 100 µM throughout.

On to `CC(C)(C)C1=Cc2cc3cc(C(C)(C)C)[nH]c(=O)c3cc2S(=O)(=O)N1`, for which the TGI in experiment [2] is 75.3 µM; in experiment [3], 84.3 µM; in experiment [4], 88.3 µM; in experiment [5] it was 34 µM; in experiment [6] it was more than 100 µM; in experiment [7] it was more than 100 µM. Also, the results for the TGI in experiment [8] and in [10] were more than 100 µM and 29.7 µM, respectively.

For `C/C(=N/NC(N)=S)c1ccc2ccccc2c1`, the TGI is 34.9 µM in experiment [1]; more than 100 µM in [2]; more than 100 µM in [3]; more than 100 µM in [4]; 80.4 µM in experiment [5]; 96.3 µM in [6]. In addition, the TGI in [7] is 78.1 µM; in [8], more than 100 µM; in [10] it was 79.1 µM.

With `C/C(=C\c1ccccc1)C(=O)CCN1CCOCC1`, the TGI in experiment [1] is 34.4 µM; in experiment [2] it was more than 100 µM; in experiment [3] it was more than 62.3 µM; in [5], 30.7 µM; in experiment [6], more than 66.1 µM; in experiment [7], more than 100 µM. The TGI in [8] came out at 41.4 µM; in experiment [9] it was 20.9 µM.

Turning to `CC(C)=C[C@@H]1C[C@H](n2cc(C)c(=O)[nH]c2=O)ON1CCO`, the TGI in [2], in experiment [3], in experiment [4], in [5], in experiment [6] and in experiment [7] was more than 100 µM throughout. Also, the TGI in experiment [8], in experiment [9] and in experiment [10] was more than 100 µM throughout.

On to `CCOP(=O)(OCC)C1C(CO)OC(n2ccc(=O)[nH]c2=O)C1O` (configuration not stated), for which the TGI in experiment [1], in [2], in [4], in experiment [6], in [7] and in [8] was more than 100 µM in each case. Moreover, the TGI in experiment [10] was more than 100 µM.

On to `CN(C)NC(=S)Nc1ccccc1Br`, for which the TGI in experiment [2], in experiment [3], in experiment [4], in [5], in [6] and in experiment [7] was more than 100 µM in each case. For the same molecule, the TGI in experiment [8], in experiment [9] and in [10] was more than 100 µM each time.

For the molecule `COC(=O)c1c(C)cccc1/C=C1/Cc2c(C)cccc2C1=O`, the TGI in experiment [1], in [2], in [3], in [4], in experiment [5] and in experiment [6] was more than 100 µM each time. For the same molecule, the TGI in [7], in experiment [8] and in experiment [9] was more than 100 µM in each case.

As for `CCCCN1CCN(c2ccc3nc(-c4ccc5nc(-c6ccc(C(F)(F)F)cc6)[nH]c5c4)[nH]c3c2)CC1`, the GI50 in experiment [1] is 1.84 µM; in experiment [2], 0.926 µM; in experiment [3] it was 1.07 µM; in [4] it was 2.21 µM; in [5], 1.59 µM; in experiment [6], 1.11 µM. For the same molecule, the values for the GI50 in experiment [7], in experiment [8] and in experiment [10] were 0.64 µM, 1.24 µM and 1.34 µM, respectively. Moreover, the TGI was found to be 3.55 µM in [1]; 2.24 µM in experiment [2]; 2.59 µM in [3]; 3.68 µM in experiment [4]; 2.96 µM in experiment [5]; 2.34 µM in [6]. Also, the TGI in experiment [7] worked out at 1.33 µM; in [8] it was 2.64 µM; in [10], 2.8 µM.

Turning to `CCOC(=O)C1=C(C(C)=O)CSC(c2ccccc2)=N1`, the TGI in experiment [1], in experiment [2], in [3], in [5], in [6] and in experiment [7] was more than 100 µM in each case. The TGI in experiment [8] and in experiment [9] was more than 100 µM throughout.

For the molecule `Cc1cc2c(C)cc(=O)[nH]c2cc1N`, the TGI in [1], in experiment [2], in experiment [3], in [5], in experiment [6] and in experiment [7] was more than 100 µM throughout. The TGI in experiment [8], in experiment [9] and in [10] was more than 100 µM each time.

With `Nc1nn2c(C(Br)Br)cc(C(Br)Br)nc2c1[N+](=O)[O-]`, the TGI in experiment [1] is 4.52 µM; in [2], 20.1 µM; in experiment [3], 1.21 µM; in experiment [4], 2.28 µM; in experiment [5] it was 2.54 µM; in experiment [6], 2.29 µM. The TGI stood at 7.5 µM in experiment [7] and 1.81 µM in [10].
